Results reported in patent US8895756B2, “Bendamustine pharmaceutical compositions” (priority 2005, dated 2014).

Test: HPLC stability of bendamustine (15 mg/mL, mannitol 25.5 mg/mL) in alcohol/water solutions at 5° C.
Type: physicochemical
Conditions: for HP1 (%) / Purity (% Area) / Dimer (%): 5° C.
Procedure: A sample of each formulation was analyzed by HPLC after 0, 3, 6 and 24 hours when stored at 5° C.

[1] = 20% Butanol (2 layers, vortexed), 0 hours
[2] = 20% Butanol (2 layers, vortexed), 3 hours
[3] = 20% Butanol (2 layers, vortexed), 6 hours
[4] = 20% Butanol (2 layers, vortexed), 24 hours
[5] = 30% Butanol (2 layers, vortexed), 0 hours
[6] = 30% Butanol (2 layers, vortexed), 3 hours
[7] = 30% Butanol (2 layers, vortexed), 6 hours
[8] = 30% Butanol (2 layers, vortexed), 24 hours

With `Cl.Cn1c(CCCC(=O)O)nc2cc(N(CCCl)CCCl)ccc21` [bendamustine, 4-{5-[Bis(2-chloroethyl)amino]-1-methyl-2-benzimidazolyl}butyric acid] the “HP1 (%)” value (10% n-Propanol, 6 hours) was 0.70%, the “Purity (% Area)” value (10% n-Propanol, 6 hours) was 98.92 % Area and the “Dimer (%)” value (10% n-Propanol, 24 hours) was 0.28%. The “HP1 (%)” value (10% n-Propanol, 24 hours) was 1.83%, the “Purity (% Area)” value (10% n-Propanol, 24 hours) was 97.67 % Area and the “Dimer (%)” value [1] was 0.10%. The “HP1 (%)” value [1] was 0.23%, the “Purity (% Area)” value [1] was 99.54 % Area and the “Dimer (%)” value [2] was 0.11%. For the same compound, the “HP1 (%)” value [2] was 0.31%, the “Purity (% Area)” value [2] was 99.45 % Area and the “Dimer (%)” value [3] was 0.11%. The “HP1 (%)” value [3] was 0.40%, the “Purity (% Area)” value [3] was 99.30 % Area and the “Dimer (%)” value [4] was 0.14%. For the same compound, the “HP1 (%)” value [4] was 0.91%, the “Purity (% Area)” value [4] was 98.81 % Area and the “Dimer (%)” value (20% Ethanol, 0 hours) was 0.10%. For the same compound, the “HP1 (%)” value (20% Ethanol, 0 hours) was 0.22%, the “Purity (% Area)” value (20% Ethanol, 0 hours) was 99.54 % Area and the “Dimer (%)” value (20% Ethanol, 3 hours) was 0.11%. For the same compound, the “HP1 (%)” value (20% Ethanol, 3 hours) was 0.30%, the “Purity (% Area)” value (20% Ethanol, 3 hours) was 99.45 % Area and the “Dimer (%)” value (20% Ethanol, 6 hours) was 0.11%. For the same compound, the “HP1 (%)” value (20% Ethanol, 6 hours) was 0.39%, the “Purity (% Area)” value (20% Ethanol, 6 hours) was 99.36 % Area and the “Dimer (%)” value (20% Ethanol, 24 hours) was 0.15%. For the same compound, the “HP1 (%)” value (20% Ethanol, 24 hours) was 0.96%, the “Purity (% Area)” value (20% Ethanol, 24 hours) was 98.61 % Area and the “Dimer (%)” value (20% Iso-propanol, 0 hours) was 0.11%. For the same compound, the “HP1 (%)” value (20% Iso-propanol, 0 hours) was 0.21%, the “Purity (% Area)” value (20% Iso-propanol, 0 hours) was 99.49 % Area and the “Dimer (%)” value (20% Iso-propanol, 3 hours) was 0.12%. For the same compound, the “HP1 (%)” value (20% Iso-propanol, 3 hours) was 0.31%, the “Purity (% Area)” value (20% Iso-propanol, 3 hours) was 99.39 % Area and the “Dimer (%)” value (20% Iso-propanol, 6 hours) was 0.13%. For the same compound, the “HP1 (%)” value (20% Iso-propanol, 6 hours) was 0.42%, the “Purity (% Area)” value (20% Iso-propanol, 6 hours) was 99.22 % Area and the “Dimer (%)” value (20% Iso-propanol, 24 hours) was 0.17%. The “HP1 (%)” value (20% Iso-propanol, 24 hours) was 1.04%, the “Purity (% Area)” value (20% Iso-propanol, 24 hours) was 98.61 % Area and the “Dimer (%)” value (20% Methanol, 0 hours) was 0.11%. The “HP1 (%)” value (20% Methanol, 0 hours) was 0.22%, the “Purity (% Area)” value (20% Methanol, 0 hours) was 99.56 % Area and the “Dimer (%)” value (20% Methanol, 3 hours) was 0.11%. The “HP1 (%)” value (20% Methanol, 3 hours) was 0.38%, the “Purity (% Area)” value (20% Methanol, 3 hours) was 99.31 % Area and the “Dimer (%)” value (20% Methanol, 6 hours) was 0.12%. The “HP1 (%)” value (20% Methanol, 6 hours) was 0.50%, the “Purity (% Area)” value (20% Methanol, 6 hours) was 98.99 % Area and the “Dimer (%)” value (20% Methanol, 24 hours) was 0.16%. For the same compound, the “HP1 (%)” value (20% Methanol, 24 hours) was 1.15%, the “Purity (% Area)” value (20% Methanol, 24 hours) was 98.31 % Area and the “Dimer (%)” value (20% Tert-butanol, 0 hours) was 0.11%. For the same compound, the “HP1 (%)” value (20% Tert-butanol, 0 hours) was 0.17%, the “Purity (% Area)” value (20% Tert-butanol, 0 hours) was 99.59 % Area and the “Dimer (%)” value (20% Tert-butanol, 3 hours) was 0.11%. For the same compound, the “HP1 (%)” value (20% Tert-butanol, 3 hours) was 0.29%, the “Purity (% Area)” value (20% Tert-butanol, 3 hours) was 99.48 % Area and the “Dimer (%)” value (20% Tert-butanol, 6 hours) was 0.12%. For the same compound, the “HP1 (%)” value (20% Tert-butanol, 6 hours) was 0.40%, the “Purity (% Area)” value (20% Tert-butanol, 6 hours) was 99.35 % Area and the “Dimer (%)” value (20% Tert-butanol, 24 hours) was 0.20%. For the same compound, the “HP1 (%)” value (20% Tert-butanol, 24 hours) was 1.27%, the “Purity (% Area)” value (20% Tert-butanol, 24 hours) was 98.35 % Area and the “Dimer (%)” value (20% n-Propanol, 0 hours) was 0.13%. For the same compound, the “HP1 (%)” value (20% n-Propanol, 0 hours) was 0.33%, the “Purity (% Area)” value (20% n-Propanol, 0 hours) was 99.45 % Area and the “Dimer (%)” value (20% n-Propanol, 3 hours) was 0.13%. The “HP1 (%)” value (20% n-Propanol, 3 hours) was 0.26%, the “Purity (% Area)” value (20% n-Propanol, 3 hours) was 99.42 % Area and the “Dimer (%)” value (20% n-Propanol, 6 hours) was 0.14%. For the same compound, the “HP1 (%)” value (20% n-Propanol, 6 hours) was 0.39%, the “Purity (% Area)” value (20% n-Propanol, 6 hours) was 99.29 % Area and the “Dimer (%)” value (20% n-Propanol, 24 hours) was 0.24%. The “HP1 (%)” value (20% n-Propanol, 24 hours) was 0.97%, the “Purity (% Area)” value (20% n-Propanol, 24 hours) was 98.60 % Area and the HP1 (30% (v/v) TBA, stored at 5° C. for up to 24 hours) was “about 0.4%”. The “Dimer (%)” value [5] was 0.10%, the “HP1 (%)” value [5] was 0.24% and the “Purity (% Area)” value [5] was 99.55 % Area. For the same compound, the “Dimer (%)” value [6] was 0.10%, the “HP1 (%)” value [6] was 0.29% and the “Purity (% Area)” value [6] was 99.40 % Area. The “Dimer (%)” value [7] was 0.11%, the “HP1 (%)” value [7] was 0.37% and the “Dimer (%)” value [8] was 0.12%. The “HP1 (%)” value [8] was 0.74%, the “Dimer (%)” value (30% Ethanol, 0 hours) was 0.10% and the “HP1 (%)” value (30% Ethanol, 0 hours) was 0.15%. For the same compound, the “Purity (% Area)” value (30% Ethanol, 0 hours) was 99.62 % Area, the “Dimer (%)” value (30% Ethanol, 3 hours) was 0.11% and the “HP1 (%)” value (30% Ethanol, 3 hours) was 0.21%. For the same compound, the “Purity (% Area)” value (30% Ethanol, 3 hours) was 99.56 % Area, the “Dimer (%)” value (30% Ethanol, 6 hours) was 0.12% and the “HP1 (%)” value (30% Ethanol, 6 hours) was 0.24%. For the same compound, the “Purity (% Area)” value (30% Ethanol, 6 hours) was 99.52 % Area, the “Dimer (%)” value (30% Ethanol, 24 hours) was 0.12% and the “HP1 (%)” value (30% Ethanol, 24 hours) was 0.45%. For the same compound, the “Purity (% Area)” value (30% Ethanol, 24 hours) was 99.21 % Area, the “Dimer (%)” value (30% Iso-propanol, 0 hours) was 0.10% and the “HP1 (%)” value (30% Iso-propanol, 0 hours) was 0.15%. For the same compound, the “Purity (% Area)” value (30% Iso-propanol, 0 hours) was 99.56 % Area, the “Dimer (%)” value (30% Iso-propanol, 3 hours) was 0.12% and the “HP1 (%)” value (30% Iso-propanol, 3 hours) was 0.20%. The “Purity (% Area)” value (30% Iso-propanol, 3 hours) was 99.47 % Area, the “Dimer (%)” value (30% Iso-propanol, 6 hours) was 0.11% and the “HP1 (%)” value (30% Iso-propanol, 6 hours) was 0.24%. For the same compound, the “Purity (% Area)” value (30% Iso-propanol, 6 hours) was 99.40 % Area, the “Dimer (%)” value (30% Iso-propanol, 24 hours) was 0.14% and the “HP1 (%)” value (30% Iso-propanol, 24 hours) was 0.52%. For the same compound, the “Purity (% Area)” value (30% Iso-propanol, 24 hours) was 99.15 % Area, the “Dimer (%)” value (30% Methanol, 0 hours) was 0.10% and the “HP1 (%)” value (30% Methanol, 0 hours) was 0.18%. The “Purity (% Area)” value (30% Methanol, 0 hours) was 99.59 % Area, the “Dimer (%)” value (30% Methanol, 3 hours) was 0.11% and the “HP1 (%)” value (30% Methanol, 3 hours) was 0.27%. The “Purity (% Area)” value (30% Methanol, 3 hours) was 99.43 % Area, the “Dimer (%)” value (30% Methanol, 6 hours) was 0.11% and the “HP1 (%)” value (30% Methanol, 6 hours) was 0.34%. The “Purity (% Area)” value (30% Methanol, 6 hours) was 99.25 % Area, the “Dimer (%)” value (30% Methanol, 24 hours) was 0.13% and the “HP1 (%)” value (30% Methanol, 24 hours) was 0.76%. The “Purity (% Area)” value (30% Methanol, 24 hours) was 98.65 % Area, the “Dimer (%)” value (30% Tert-butanol, 0 hours) was 0.10% and the “HP1 (%)” value (30% Tert-butanol, 0 hours) was 0.13%. The “Purity (% Area)” value (30% Tert-butanol, 0 hours) was 99.63 % Area, the “Dimer (%)” value (30% Tert-butanol, 3 hours) was 0.10% and the “HP1 (%)” value (30% Tert-butanol, 3 hours) was 0.16%. The “Purity (% Area)” value (30% Tert-butanol, 3 hours) was 99.60 % Area, the “Dimer (%)” value (30% Tert-butanol, 6 hours) was 0.11% and the “HP1 (%)” value (30% Tert-butanol, 6 hours) was 0.18%. The “Purity (% Area)” value (30% Tert-butanol, 6 hours) was 99.58 % Area, the “Dimer (%)” value (30% Tert-butanol, 24 hours) was 0.12% and the “HP1 (%)” value (30% Tert-butanol, 24 hours) was 0.34%. The “Purity (% Area)” value (30% Tert-butanol, 24 hours) was 99.42 % Area, the “Dimer (%)” value (30% n-Propanol, 0 hours) was 0.13% and the “HP1 (%)” value (30% n-Propanol, 0 hours) was 0.15%. For the same compound, the “Purity (% Area)” value (30% n-Propanol, 0 hours) was 99.53 % Area, the “Dimer (%)” value (30% n-Propanol, 3 hours) was 0.15% and the “HP1 (%)” value (30% n-Propanol, 3 hours) was 0.15%. The “Purity (% Area)” value (30% n-Propanol, 3 hours) was 99.51 % Area, the “Dimer (%)” value (30% n-Propanol, 6 hours) was 0.11% and the “HP1 (%)” value (30% n-Propanol, 6 hours) was 0.20%. For the same compound, the “Purity (% Area)” value (30% n-Propanol, 6 hours) was 99.44 % Area, the “Dimer (%)” value (30% n-Propanol, 24 hours) was 0.17% and the “HP1 (%)” value (30% n-Propanol, 24 hours) was 0.36%. The “Purity (% Area)” value (30% n-Propanol, 24 hours) was 99.27 % Area.
